Measurements taken from paper PMC6032158, “Structure–Activity Relationship of Piplartine and Synthetic Analogues against Schistosoma mansoni and Cytotoxicity to Mammalian Cells” (International Journal of Molecular Sciences, 2018).

Legend:
[1] = test system: 49-day-old S. mansoni adult worms; experiment: In vitro experiments with adult worms of S. mansoni (mortality, motor activity); format: cell-based, Schistosoma mansoni; settings: for Dead Worms (%) F / Motor Activity Reduction (%) Significant F / Motor Activity Reduction (%) Slight F: female worms; for Dead Worms (%) M / Motor Activity Reduction (%) Significant M / Motor Activity Reduction (%) Slight M: male worms
Method: The Belo Horizonte (BH) strain of S. mansoni was maintained in Biomphalaria glabrata snails and Mesocricetus auratus hamsters at the Adolfo Lutz Institute (São Paulo, Brazil) according to standard procedures. Detailed methods for the infection of molluscs and hamsters, as well as for the recovery of parasites, were as described previously. Briefly, the intermediate host snails were exposed to light for approximately 3 h and cercariae of S. mansoni were subsequently harvested. […] All animals were handled in strict accordance with good animal practice as defined by the Animal Use Ethics Committee. The preparations and culture of schistosomes was performed as previously described. Briefly, hamsters were killed 49 days after infection for the recovery of adult schistosomes. Next, fresh adult worm pairs (male and female) were washed and placed in a 24-well culture plate (TPP, St. […] Adult schistosomes were maintained continuously in medium (with or without drugs) for 96 h as described below. In vitro assays in S. mansoni adults were performed with mated males and females. The worm pairs obtained from the infusion hamsters were washed twice with RPMI 1640 medium containing 200 U/mL penicillin, 200 μg/mL streptomycin and 2 μg/mL amphotericin B (Vitrocell, Campinas, Brazil). The mated parasites were then transferred into 24-well cell culture plates (TPP, St. […] Cultures of adult worms were monitored by microscopy or magnifying glass. The effect of the drug was assessed with emphasis on changes in worm motor activity and death of worms as previously described.

[2] = test system: mouse BALB/cN macrophage (J774A.1) cell line; experiment: Cell viability by flow cytometry in macrophages; settings: 24 h, 25, 100 and 400 µg/mL, vs DMEM control
[3] = test system: murine fibroblast (NIH-3T3) cells; experiment: MTT cytotoxicity assay in murine fibroblasts; format: cell-based
Method: Next, the medium was removed and various concentrations (25–800 µg/mL) of samples reconstituted in 3% DMSO were applied. DMSO (3%) was used as a control. The plates were incubated for 24 h. Next, 15 µL of MTT solution (5 mg/mL in phosphate buffer) was added to each well and the plates were incubated for 2 h. Medium was discarded and 100 µL of DMSO was added to each well. Absorbance was determined using a spectrophotometer with a microplate reader at 595 nm (Molecular Devices Corporation, Sunnyvale, CA, USA).

For `O=C(/C=C/c1ccc([N+](=O)[O-])cc1)N(C(=O)NC1CCCCC1)C1CCCCC1` [Compound 6B], the “Dead Worms (%) F” value ([1]; 5 µM, 14 h) was 0%, the “Motor Activity Reduction (%) Significant F” value ([1]; 5 µM, 14 h) was 0% and the “Motor Activity Reduction (%) Slight F” value ([1]; 5 µM, 14 h) was 0%. The “Dead Worms (%) M” value ([1]; 5 µM, 14 h) was 0%, the “Motor Activity Reduction (%) Significant M” value ([1]; 5 µM, 14 h) was 0% and the “Motor Activity Reduction (%) Slight M” value ([1]; 5 µM, 14 h) was 0%. The “Dead Worms (%) F” value ([1]; 5 µM, 48 h) was 0%, the “Motor Activity Reduction (%) Significant F” value ([1]; 5 µM, 48 h) was 0% and the “Motor Activity Reduction (%) Slight F” value ([1]; 5 µM, 48 h) was 0%. The “Dead Worms (%) M” value ([1]; 5 µM, 48 h) was 0%, the “Motor Activity Reduction (%) Significant M” value ([1]; 5 µM, 48 h) was 0% and the “Motor Activity Reduction (%) Slight M” value ([1]; 5 µM, 48 h) was 0%. The “Dead Worms (%) F” value ([1]; 5 µM, 72 h) was 0%, the “Motor Activity Reduction (%) Significant F” value ([1]; 5 µM, 72 h) was 0% and the “Motor Activity Reduction (%) Slight F” value ([1]; 5 µM, 72 h) was 0%. The “Dead Worms (%) M” value ([1]; 5 µM, 72 h) was 0%, the “Motor Activity Reduction (%) Significant M” value ([1]; 5 µM, 72 h) was 0% and the “Motor Activity Reduction (%) Slight M” value ([1]; 5 µM, 72 h) was 0%. The “Dead Worms (%) F” value ([1]; 5 µM, 96 h) was 0%, the “Motor Activity Reduction (%) Significant F” value ([1]; 5 µM, 96 h) was 0% and the “Motor Activity Reduction (%) Slight F” value ([1]; 5 µM, 96 h) was 0%. For the same molecule, the “Dead Worms (%) M” value ([1]; 5 µM, 96 h) was 0%, the “Motor Activity Reduction (%) Significant M” value ([1]; 5 µM, 96 h) was 0% and the “Motor Activity Reduction (%) Slight M” value ([1]; 5 µM, 96 h) was 0%. For the same molecule, the “Dead Worms (%) F” value ([1]; 10 µM, 24 h) was 0%, the “Motor Activity Reduction (%) Significant F” value ([1]; 10 µM, 24 h) was 0% and the “Motor Activity Reduction (%) Slight F” value ([1]; 10 µM, 24 h) was 0%. The “Dead Worms (%) M” value ([1]; 10 µM, 24 h) was 0%, the “Motor Activity Reduction (%) Significant M” value ([1]; 10 µM, 24 h) was 0% and the “Motor Activity Reduction (%) Slight M” value ([1]; 10 µM, 24 h) was 0%. For the same molecule, the “Dead Worms (%) F” value ([1]; 10 µM, 48 h) was 0%, the “Motor Activity Reduction (%) Significant F” value ([1]; 10 µM, 48 h) was 0% and the “Motor Activity Reduction (%) Slight F” value ([1]; 10 µM, 48 h) was 0%. For the same molecule, the “Dead Worms (%) M” value ([1]; 10 µM, 48 h) was 0%, the “Motor Activity Reduction (%) Significant M” value ([1]; 10 µM, 48 h) was 0% and the “Motor Activity Reduction (%) Slight M” value ([1]; 10 µM, 48 h) was 0%. For the same molecule, the “Dead Worms (%) F” value ([1]; 10 µM, 72 h) was 0%, the “Motor Activity Reduction (%) Significant F” value ([1]; 10 µM, 72 h) was 0% and the “Motor Activity Reduction (%) Slight F” value ([1]; 10 µM, 72 h) was 0%. The “Dead Worms (%) M” value ([1]; 10 µM, 72 h) was 0%, the “Motor Activity Reduction (%) Significant M” value ([1]; 10 µM, 72 h) was 0% and the “Motor Activity Reduction (%) Slight M” value ([1]; 10 µM, 72 h) was 0%. For the same molecule, the “Dead Worms (%) F” value ([1]; 10 µM, 96 h) was 0%, the “Motor Activity Reduction (%) Significant F” value ([1]; 10 µM, 96 h) was 0% and the “Motor Activity Reduction (%) Slight F” value ([1]; 10 µM, 96 h) was 0%. The “Dead Worms (%) M” value ([1]; 10 µM, 96 h) was 0%, the “Motor Activity Reduction (%) Significant M” value ([1]; 10 µM, 96 h) was 0% and the “Motor Activity Reduction (%) Slight M” value ([1]; 10 µM, 96 h) was 0%. For the same molecule, the “Dead Worms (%) F” value ([1]; 25 µM, 24 h) was 0%, the “Motor Activity Reduction (%) Significant F” value ([1]; 25 µM, 24 h) was 0% and the “Motor Activity Reduction (%) Slight F” value ([1]; 25 µM, 24 h) was 0%. The “Dead Worms (%) M” value ([1]; 25 µM, 24 h) was 0%, the “Motor Activity Reduction (%) Significant M” value ([1]; 25 µM, 24 h) was 0% and the “Motor Activity Reduction (%) Slight M” value ([1]; 25 µM, 24 h) was 0%. The “Dead Worms (%) F” value ([1]; 25 µM, 48 h) was 0%, the “Motor Activity Reduction (%) Significant F” value ([1]; 25 µM, 48 h) was 0% and the “Motor Activity Reduction (%) Slight F” value ([1]; 25 µM, 48 h) was 0%. The “Dead Worms (%) M” value ([1]; 25 µM, 48 h) was 0%, the “Motor Activity Reduction (%) Significant M” value ([1]; 25 µM, 48 h) was 0% and the “Motor Activity Reduction (%) Slight M” value ([1]; 25 µM, 48 h) was 0%. For the same molecule, the “Dead Worms (%) F” value ([1]; 25 µM, 72 h) was 0%, the “Motor Activity Reduction (%) Significant F” value ([1]; 25 µM, 72 h) was 0% and the “Motor Activity Reduction (%) Slight F” value ([1]; 25 µM, 72 h) was 0%. The “Dead Worms (%) M” value ([1]; 25 µM, 72 h) was 0%, the “Motor Activity Reduction (%) Significant M” value ([1]; 25 µM, 72 h) was 0% and the “Motor Activity Reduction (%) Slight M” value ([1]; 25 µM, 72 h) was 0%. For the same molecule, the “Dead Worms (%) F” value ([1]; 25 µM, 96 h) was 0%, the “Motor Activity Reduction (%) Significant F” value ([1]; 25 µM, 96 h) was 0% and the “Motor Activity Reduction (%) Slight F” value ([1]; 25 µM, 96 h) was 0%. For the same molecule, the “Dead Worms (%) M” value ([1]; 25 µM, 96 h) was 0%, the “Motor Activity Reduction (%) Significant M” value ([1]; 25 µM, 96 h) was 0% and the “Motor Activity Reduction (%) Slight M” value ([1]; 25 µM, 96 h) was 0%. For the same molecule, the “Dead Worms (%) F” value ([1]; 50 µM, 24 h) was 0%, the “Motor Activity Reduction (%) Significant F” value ([1]; 50 µM, 24 h) was 0% and the “Motor Activity Reduction (%) Slight F” value ([1]; 50 µM, 24 h) was 0%. For the same molecule, the “Dead Worms (%) M” value ([1]; 50 µM, 24 h) was 0%, the “Motor Activity Reduction (%) Significant M” value ([1]; 50 µM, 24 h) was 0% and the “Motor Activity Reduction (%) Slight M” value ([1]; 50 µM, 24 h) was 0%. For the same molecule, the “Dead Worms (%) F” value ([1]; 50 µM, 48 h) was 0%, the “Motor Activity Reduction (%) Significant F” value ([1]; 50 µM, 48 h) was 0% and the “Motor Activity Reduction (%) Slight F” value ([1]; 50 µM, 48 h) was 0%. For the same molecule, the “Dead Worms (%) M” value ([1]; 50 µM, 48 h) was 0%, the “Motor Activity Reduction (%) Significant M” value ([1]; 50 µM, 48 h) was 0% and the “Motor Activity Reduction (%) Slight M” value ([1]; 50 µM, 48 h) was 0%. For the same molecule, the “Dead Worms (%) F” value ([1]; 50 µM, 72 h) was 0%, the “Motor Activity Reduction (%) Significant F” value ([1]; 50 µM, 72 h) was 0% and the “Motor Activity Reduction (%) Slight F” value ([1]; 50 µM, 72 h) was 0%. The “Dead Worms (%) M” value ([1]; 50 µM, 72 h) was 0%, the “Motor Activity Reduction (%) Significant M” value ([1]; 50 µM, 72 h) was 0% and the “Motor Activity Reduction (%) Slight M” value ([1]; 50 µM, 72 h) was 0%. The “Dead Worms (%) F” value ([1]; 50 µM, 96 h) was 0%, the “Motor Activity Reduction (%) Significant F” value ([1]; 50 µM, 96 h) was 0% and the “Motor Activity Reduction (%) Slight F” value ([1]; 50 µM, 96 h) was 0%. The “Dead Worms (%) M” value ([1]; 50 µM, 96 h) was 0%, the “Motor Activity Reduction (%) Significant M” value ([1]; 50 µM, 96 h) was 0% and the “Motor Activity Reduction (%) Slight M” value ([1]; 50 µM, 96 h) was 0%. For the same molecule, the “activity against S. mansoni adult worms (in words)” value ([1]; analogues 50, 25, 10 and 5 μM, piplartine 5 and 10 μM, up to 96 h) was “did not present biological activity against the S. mansoni parasite”, the “effect on J774A.1 cell viability (in words)” value [2] was “did not reduce cell viability at the same concentrations” and the “effect on NIH-3T3 cell viability (in words)” value ([3]; MTT, 24 h exposure, 25 to 800 µg/mL) was “did not exert significant effects on mammalian cell viability at the tested concentrations”. For the same molecule, the Emax at 800 µg/mL ([3]; Mus musculus, NIH3T3, 24 h, decrease in cell viability at the maximum concentration tested (800 μg/mL), NIH-3T3, 24 h) was < 50%.
